Where two headings read alike, the source gives them in different places.
Assays:
[1] = system: murine thymocytes (IL-1β action); assay: Inhibition of IL-1 action: suppression of IL-1β + PHA stimulated thymocyte proliferation ((3H)-thymidine incorporation); format: cell-based, mouse (C3H/HeN); details: IL-1β 0.08 ng/ml + PHA 10 μg/ml
Method: The ability of the above compounds to suppress the cell-proliferative effect of IL-1β (O'Gara, 1990) was examined as described in Example 11. Mouse thymocytes in culture were stimulated with IL-1β in the presence of phytohemagglutinin (PHA) and increasing concentrations of triptolide (control) and triptolide derivatives. The cells were cultured for 72 hours, and during the last 18 hours, incubated with tritiated thymidine. DNA synthesis was assessed by measuring incorporation of radiolabeled thymidine. The results expressed in terms of IC50 (concentration effective to cause 50% suppression of proliferation) are shown in Table I.
Inhibition of IL-1 Action on Murine Thymocytes
C3H/HeN mouse thymocytes were prepared and the action of IL-1 together with PHA, which stimulate proliferation of thymocyte, was measured using standard techniques (O'Gara, 1990; Mishell, 1980). Three- to six-week old C3H/HeN male mice (Simonson Laboratory, Gilroy, Calif.) were sacrificed by CO2 inhalation. Thymi were removed, separated from adherent non-thymic tissue, homogenized in Hank's balanced salt solution (HBSS, Gibco) using a glass homogenizer, and centrifuged at 200×g for 10 minutes at 15° C. Following an additional wash in HBSS, the thymocytes were resuspended in RPMI 1640 medium containing 50 uM 2-mercaptoethanol, 2 mM glutamine, 1 mM sodium pyruvate, non-essential amino acids 100 U/ml penicillin, 100 μg/ml streptomycin, and 10% heat-inactivated fetal bovine serum.
Cells were cultured in round-bottom 96 well microtiter tissue culture plates, 6×10^5 cells per well, in a volume of 100 μl. Recombinant human IL-1β(R & D Systems #201-LB) together with Phytohemagglutinin P (PHA, Pharmacia) were added to the cells in volume of 25 μl per well to achieve a final concentration of 0.08 ng/ml and 10 μg/ml, respectively. Samples were dissolved in DMSO (10 mg/ml), then diluted in culture medium. […]
Plates were incubated at 37° C. in a 5% CO2 incubator for 72 hours. […] Cells were then harvested and counted. […]

[2] = Stability in blood serum (TLC); format: in vitro ADME; details: rat serum, 37° C
Method: The stability of triptolide succinate in blood serum was determined as detailed in Example 10B. In this study, a solution of triptolide succinate (YM-262, free acid) in DMSO was mixed with rat serum and incubated at 37° C. The mixture was assayed periodically by thin layer chromatography (TLC) to follow the hydrolysis of the triptolide succinate over time.
A solution of triptolide succinate (free acid; YM-262) in DMSO was made at a concentration of 25 mg/ml, and 0.1 ml of this solution was mixed with 0.5 ml of rat serum. The mixture was incubated at 37° C. Aliquots of the mixture were taken at 1, 3, 5, 15, 45 minutes and 18 hours and analyzed by thin layer chromatography (TLC). The TLC plates were developed in 1:5 CH2 CI2 /Et2 O. After development, the plates were treated with iodine vapor and examined under a UV lamp. Triptolide and triptolide succinate were used as reference compounds (Rf =0.60), and 0.45, respectively).

Molecule `CC(C)[C@]12O[C@H]1[C@@H]1O[C@]13[C@]1(O[C@H]1C[C@H]1C4=C(CC[C@@]13C)C(=O)OC4)[C@@H]2O` [Triptolide, triptolide] has an IC50 ([1]; 72 hours, read-out: IC50, IL-1 assay) of ~5 nM, an IC50 ([1]; Mus musculus, Thymocyte, 72 h, read-out: IC50 (concentration effective to cause 50% suppression of proliferation), IL-1 assay) of 1.9 ng/mL and an IC50 ([1]; Mus musculus, Thymocyte, 72 h, read-out: IC50, IL-1 assay) of 5.3 nM. For the same molecule, the “triptolide spot, 15 minutes (formed from triptolide succinate)” value ([2]; 15 minutes) was “a new spot corresponding to triptolide had appeared” and the “triptolide spot, 45 minutes (formed from triptolide succinate)” value ([2]; 45 minutes) was “the triptolide spot had also disappeared”.
